PubChem BioAssay AID2060612 (Molecular Pharmacology Branch, DTP, NCI, 2025)

System: 565232-114-T-J1-PDC complex spheroid viability
Assay: Anticancer human tumor 565232-114-T-J1-PDC patient-derived bladder carcinoma cell line growth inhibition [CLK]
Settings: for IC50: curve of first compound; for viability, T/C: stronger effect = lower value
Description: A high-throughput screen of multi-cell type tumor spheroids was designed to identify active combinations of […] and targeted small molecules. Complex spheroids include a stromal component modeled by human endothelial cells (HUVEC) and fibroblasts modeled by human mesenchymal stem cells (MSCs). The concentration ranges selected for each drug and investigational agent were based upon clinically achievable concentrations if the clinical Cmax of the agent was known.
Compounds. The drugs and investigational agents: cirtuvivint (SM08502; NSC835563), CC-671 (NSC850746), vemurafenib (NSC761431), tapotoclax (NSC804041), sotorasib (NSC818433), adagrasib (NSC831453), MRTX-1133 (NSC836407), BAY2416964 (NSC825713), copanlisib (NSC816437), inavolisib (NSC800729), abemaciclib (NSC768073), osimertinib (NSC779217), entinostat (NSC756642), eltanexor (KPT-8602, NSC794443), venetoclax (NSC766270), ceralasertib (NSC777638), bortezomib (NSC756655), olaparib (NSC753686), talazoparib (NSC767125), alisertib (NSC759677), peposertib (NSC802822), gemcitabine (NSC613327), 5-fluorouracil (NSC19893), SN-38 (NSC673596), oxaliplatin (NSC266046), paclitaxel (NSC125973), and doxorubicin (NSC123127), were obtained from the National Cancer Institute (NCI) Developmental Therapeutics Program Chemical Repository. The FDA-approved anticancer drug set is available from the Developmental Therapeutics Program at https://dtp.cancer.gov/organization/dscb/obtaining/available plates.htm. […] The stock solutions were prepared in dimethyl sulfoxide (DMSO, Sigma-Aldrich, St. Louis, MO, cat. D2650), except for the platinum complexes which were prepared in saline (Quality Biological, Gaithersburg, MD, cat. 114-055-101), at 800-fold the tested concentration and stored at -70 degrees C prior to their use. All drugs and investigational agents were tested over a range starting from a high concentration at or near the clinical Cmax and decreasing in half-log increments. If the clinical Cmax for an agent had not been determined, the highest concentration tested was 10 microM.
Cell Culture. All cells were maintained in an incubator at 37 degrees C and 5% CO2 with 95% humidity. The PDC lines were cultured according to standard operating procedures established by the NCI PDMR. Briefly, all PDCs were thawed and cultured in Matrigel-coated flasks prepared with a working solution of 1X Ham's F-12 nutrient mix, without supplementation (Invitrogen, Waltham, MA, cat. 11765054), 100 U/mL penicillin-streptomycin (Invitrogen, cat. 15140122), and 2.5% Matrigel (Corning Inc., Corning, NY, cat. 354248) for the first three passages. The 947758-054-R-J2-PDC line was cultured in 6B/Colon 1A media, which includes advanced DMEM/F-12 (Thermo Fisher Scientific, cat. 12634028), 10 mM HEPES (Thermo Fisher Scientific, cat. 15630080), 1X GlutaMAX supplement (Thermo Fisher Scientific, cat. 35050061), 0.1 mg/mL primocin (InvivoGen, cat. ant-pm-2), 10% defined fetal bovine serum, heat inactivated (HyClone Laboratories Inc., cat. SH30070.03HI), 1.25 mM N-Acetyl-L-cysteine (Sigma-Aldrich, cat. A9165), 10 mM nicotinamide (Sigma-Aldrich, cat. N0636), 1X B-27 supplement (Thermo Fisher Scientific, cat. 17504044), 1X N-2 supplement (Thermo Fisher Scientific, cat. 17502048), and 10 microM Y-27632 dihydrochloride (Tocris Bioscience, cat. 1254). The 876862-298-R-J1-PDC was cultured in 6E media, which includes all 6B/Colon 1A media components plus 50% L-WRN conditioned media (ATCC, cat. CRL-3276), 50 ng/mL recombinant human EGF recombinant protein (hEGF; Thermo Fisher Scientific, cat. PHG0311), 10 ng/mL recombinant human fibroblast growth factor 10 (hGFG-10; PeproTech, cat. 100-26), 1 ng/mL recombinant human fibroblast growth factor 2 (hFGF-2; PeproTech, cat. 100-18B), and 1 µM prostaglandin E2 (PGE2; Tocris, cat. 2296). The 227483-062-R1-J1-PDC line was cultured in Panc media, containing all 6E components except hFGF-2, with the addition of 500 nM SB-431542 (Selleckchem, cat. S1067) and 10 nM gastrin (Tocris, cat. 3006). […]
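Note: spheroids exposed to compounds for 7 days before readout.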
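Throughout, for viability, T/C: 100% = DMSO vehicle wells with luminescence normalized to vehicle control.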

## C=CC(=O)Nc1cc(Nc2nccc(-c3cn(C)c4ccccc34)n2)c(OC)cc1N(C)CCN(C)C + CN1CCN(c2cc(C(=O)Nc3cc4cc(-c5cnn(C)c5)ccc4cn3)ccn2)CC1
Second compound 0.0316 µM
  IC50: > 300 nM
Second compound 0.1 µM
  IC50: > 300 nM
Second compound 0.316 µM
  IC50: < 0.949 nM
Second compound 1 µM
  IC50: < 0.949 nM
Second compound 3.16 µM
  IC50: < 0.949 nM
Second compound 10 µM
  IC50: < 0.949 nM
Second compound 0.0316 µM, first compound 0.000949 µM
  viability, T/C: 104%
Second compound 0.0316 µM, first compound 0.003 µM
  viability, T/C: 95.3%
Second compound 0.0316 µM, first compound 0.00949 µM
  viability, T/C: 106%
Second compound 0.0316 µM, first compound 0.03 µM
  viability, T/C: 84.1%
Second compound 0.0316 µM, first compound 0.0949 µM
  viability, T/C: 90.6%
Second compound 0.0316 µM, first compound 0.3 µM
  viability, T/C: 83.7%
Second compound 0.1 µM, first compound 0.000949 µM
  viability, T/C: 97.5%
Second compound 0.1 µM, first compound 0.003 µM
  viability, T/C: 85.8%
Second compound 0.1 µM, first compound 0.00949 µM
  viability, T/C: 110%
Second compound 0.1 µM, first compound 0.03 µM
  viability, T/C: 89.3%
Second compound 0.1 µM, first compound 0.0949 µM
  viability, T/C: 97.9%
Second compound 0.1 µM, first compound 0.3 µM
  viability, T/C: 94.5%
Second compound 0.316 µM, first compound 0.000949 µM
  viability, T/C: 14.9%
Second compound 0.316 µM, first compound 0.003 µM
  viability, T/C: 20.3%
Second compound 0.316 µM, first compound 0.00949 µM
  viability, T/C: 20.1%
Second compound 0.316 µM, first compound 0.03 µM
  viability, T/C: 20.5%
Second compound 0.316 µM, first compound 0.0949 µM
  viability, T/C: 18.7%
Second compound 0.316 µM, first compound 0.3 µM
  viability, T/C: 18.3%
Second compound 1 µM, first compound 0.000949 µM
  viability, T/C: 0.2%
Second compound 1 µM, first compound 0.003 µM
  viability, T/C: 0.26%
Second compound 1 µM, first compound 0.00949 µM
  viability, T/C: 1.8%
Second compound 1 µM, first compound 0.03 µM
  viability, T/C: 0.2%
Second compound 1 µM, first compound 0.0949 µM
  viability, T/C: 0.2%
Second compound 1 µM, first compound 0.3 µM
  viability, T/C: 1.48%
Second compound 3.16 µM, first compound 0.000949 µM
  viability, T/C: 0.23%
Second compound 3.16 µM, first compound 0.003 µM
  viability, T/C: 0.22%
Second compound 3.16 µM, first compound 0.00949 µM
  viability, T/C: 1.48%
Second compound 3.16 µM, first compound 0.03 µM
  viability, T/C: 0.22%
Second compound 3.16 µM, first compound 0.0949 µM
  viability, T/C: 0.91%
Second compound 3.16 µM, first compound 0.3 µM
  viability, T/C: 0.82%
Second compound 10 µM, first compound 0.000949 µM
  viability, T/C: 0.23%
Second compound 10 µM, first compound 0.003 µM
  viability, T/C: 0.26%
Second compound 10 µM, first compound 0.00949 µM
  viability, T/C: 1.25%
Second compound 10 µM, first compound 0.03 µM
  viability, T/C: 1.11%
Second compound 10 µM, first compound 0.0949 µM
  viability, T/C: 1.9%
Second compound 10 µM, first compound 0.3 µM
  viability, T/C: 1.19%

## Nc1ccccc1NC(=O)c1ccc(CNC(=O)OCc2cccnc2)cc1 + CN1CCN(c2cc(C(=O)Nc3cc4cc(-c5cnn(C)c5)ccc4cn3)ccn2)CC1
Second compound 0.0316 µM
  IC50: 5260 nM
Second compound 0.1 µM
  IC50: 2660 nM
Second compound 0.316 µM
  IC50: < 31.6 nM
Second compound 1 µM
  IC50: < 31.6 nM
Second compound 3.16 µM
  IC50: < 31.6 nM
Second compound 10 µM
  IC50: < 31.6 nM
Second compound 0.0316 µM, first compound 0.0316 µM
  viability, T/C: 110%
Second compound 0.0316 µM, first compound 0.1 µM
  viability, T/C: 108%
Second compound 0.0316 µM, first compound 0.316 µM
  viability, T/C: 111%
Second compound 0.0316 µM, first compound 1 µM
  viability, T/C: 100%
Second compound 0.0316 µM, first compound 3.16 µM
  viability, T/C: 89.8%
Second compound 0.0316 µM, first compound 10 µM
  viability, T/C: 1.38%
Second compound 0.1 µM, first compound 0.0316 µM
  viability, T/C: 107%
Second compound 0.1 µM, first compound 0.1 µM
  viability, T/C: 93.5%
Second compound 0.1 µM, first compound 0.316 µM
  viability, T/C: 92.5%
Second compound 0.1 µM, first compound 1 µM
  viability, T/C: 89.9%
Second compound 0.1 µM, first compound 3.16 µM
  viability, T/C: 42.9%
Second compound 0.1 µM, first compound 10 µM
  viability, T/C: 0.29%
Second compound 0.316 µM, first compound 0.0316 µM
  viability, T/C: 16.2%
Second compound 0.316 µM, first compound 0.1 µM
  viability, T/C: 23%
Second compound 0.316 µM, first compound 0.316 µM
  viability, T/C: 11.5%
Second compound 0.316 µM, first compound 1 µM
  viability, T/C: 9.54%
Second compound 0.316 µM, first compound 3.16 µM
  viability, T/C: 2.07%
Second compound 0.316 µM, first compound 10 µM
  viability, T/C: 0.07%
Second compound 1 µM, first compound 0.0316 µM
  viability, T/C: 0.15%
Second compound 1 µM, first compound 0.1 µM
  viability, T/C: 1.24%
Second compound 1 µM, first compound 0.316 µM
  viability, T/C: 3.47%
Second compound 1 µM, first compound 1 µM
  viability, T/C: 0.16%
Second compound 1 µM, first compound 3.16 µM
  viability, T/C: 1.45%
Second compound 1 µM, first compound 10 µM
  viability, T/C: 0.11%
Second compound 3.16 µM, first compound 0.0316 µM
  viability, T/C: 0.3%
Second compound 3.16 µM, first compound 0.1 µM
  viability, T/C: 3.93%
Second compound 3.16 µM, first compound 0.316 µM
  viability, T/C: 3.86%
Second compound 3.16 µM, first compound 1 µM
  viability, T/C: 0.23%
Second compound 3.16 µM, first compound 3.16 µM
  viability, T/C: 0.19%
Second compound 3.16 µM, first compound 10 µM
  viability, T/C: 0.18%
Second compound 10 µM, first compound 0.0316 µM
  viability, T/C: 0.11%
Second compound 10 µM, first compound 0.1 µM
  viability, T/C: 0.5%
Second compound 10 µM, first compound 0.316 µM
  viability, T/C: 2.65%
Second compound 10 µM, first compound 1 µM
  viability, T/C: 0.16%
Second compound 10 µM, first compound 3.16 µM
  viability, T/C: 0.94%
Second compound 10 µM, first compound 10 µM
  viability, T/C: 0.18%
